Drawing on ChEMBL document CHEMBL3390848, “Affinity selection and sequence-activity relationships of HIV-1 membrane fusion inhibitors directed at the drug-resistant variants” (Medchemcomm, 2010), this text covers Tm, EC50 and Activity for five compounds.

Residues, ends and D or L forms follow the SMILES beside them.

Test [1] has as its system Human immunodeficiency virus 1. Description: Thermal stability of HIV1 envelope glycoprotein gp41 His-tagged N-terminal heptad repeat N54 N43D mutant-drug complex assessed as thermal unfolding transition state by measuring molar ellipticity at 4 to 90 degC by circular dichroic spectra analysis.
Test [2] concerns Envelope glycoprotein gp160 (Human immunodeficiency virus 1), Q72502 [V38A]. In words: Thermal stability of HIV1 envelope glycoprotein gp41 His-tagged N-terminal heptad repeat N54 V38A mutant-drug complex assessed as thermal unfolding transition state by measuring molar ellipticity at 4 to 90 degC by circular dichroic spectra analysis.
For test [3], the system named is Human immunodeficiency virus 1. Description: Antiviral activity against HIV1 NL4-3 harboring gp41 D36G mutant infected in human HeLa cells expressing CD4-LTR-beta-gal assessed as inhibition of viral replication after 48 hrs by MAGI assay. The test is classed as functional, organism-based.
Test [4] has as its system Envelope glycoprotein gp160 (Human immunodeficiency virus 1), Q72502 [V38A]. Description: Binding affinity to HIV1 His-tagged N-terminal heptad repeat of envelope glycoprotein gp41 assessed as recovery of N54 V38A mutant-drug complex after 2 hrs by LC-MS analysis. Details: concentration or dose not given beside the values.
The test system of test [5] is Human immunodeficiency virus 1. Description: Binding affinity to HIV1 His-tagged N-terminal heptad repeat of envelope glycoprotein gp41 assessed as recovery of N54 N43D mutant-drug complex after 2 hrs by LC-MS analysis. Details: concentration or dose not given beside the values.
The test system of test [6] is Human immunodeficiency virus 1. Description: Thermal stability of HIV1 envelope glycoprotein gp41 His-tagged N-terminal heptad repeat N54-drug complex assessed as thermal unfolding transition state by measuring molar ellipticity at 4 to 90 degC by circular dichroic spectra analysis.
Test [7] has as its system Human immunodeficiency virus 1. Description: Binding affinity to HIV1 His-tagged N-terminal heptad repeat of envelope glycoprotein gp41 assessed as recovery of N54-drug complex after 2 hrs by LC-MS analysis. Further details: concentration or dose not given beside the values.
Test [8] deals with Human immunodeficiency virus 1. In words: Binding affinity to HIV1 His-tagged N-terminal heptad repeat of envelope glycoprotein gp41 assessed as recovery of N36-drug complex at 10 uM after 2 hrs by LC-MS analysis.
Test [9] has as its system Human immunodeficiency virus 1. In words: Binding affinity to HIV1 His-tagged N-terminal heptad repeat of envelope glycoprotein gp41 assessed as recovery of N36-drug complex at 1 uM after 2 hrs by LC-MS analysis.
For test [10], the system named is Human immunodeficiency virus 1. In words: Thermal stability of HIV1 envelope glycoprotein gp41 His-tagged N-terminal heptad repeat N36-drug complex assessed as thermal unfolding transition state by measuring molar ellipticity at 4 to 90 degC by circular dichroic spectra analysis.
The subject of test [11] is Human immunodeficiency virus 1. In words: Binding affinity to HIV1 His-tagged N-terminal heptad repeat of envelope glycoprotein gp41 assessed as recovery of N36-drug complex at 6 uM after 2 hrs by LC-MS analysis.
The subject of test [12] is Human immunodeficiency virus 1. Description: Binding affinity to HIV1 His-tagged N-terminal heptad repeat of envelope glycoprotein gp41 assessed as recovery of N36-drug complex at 0.6 uM after 2 hrs by LC-MS analysis.

Regarding `CC[C@H](C)[C@H](NC(=O)[C@H](CC(C)C)NC(=O)[C@H](CCC(=O)O)NC(=O)[C@H](CCC(=O)O)NC(=O)[C@@H](NC(=O)[C@H](CC(C)C)NC(=O)[C@H](CO)NC(=O)[C@@H](NC(=O)[C@H](Cc1ccc(O)cc1)NC(C)=O)[C@@H](C)O)[C@@H](C)CC)C(=O)N[C@@H](CCCCN)C(=O)N[C@@H](CCCCN)C(=O)N[C@H](C(=O)N[C@@H](CCC(=O)O)C(=O)N[C@@H](CCC(=O)O)C(=O)N[C@@H](CCC(N)=O)C(=O)N[C@@H](CCC(N)=O)C(=O)N[C@@H](CCCCN)C(=O)N[C@@H](CCCCN)C(=O)N[C@@H](CC(N)=O)C(=O)N[C@@H](CCC(=O)O)C(=O)N[C@@H](CCC(=O)O)C(=O)N[C@@H](CCC(=O)O)C(=O)N[C@@H](CC(C)C)C(=O)N[C@@H](CCCCN)C(=O)N[C@@H](CCCCN)C(=O)N[C@@H](CC(C)C)C(=O)N[C@@H](CCC(=O)O)C(=O)N[C@@H](CCC(=O)O)C(=O)N[C@@H](Cc1c[nH]c2ccccc12)C(=O)N[C@@H](C)C(=O)N[C@@H](CCCCN)C(=O)N[C@@H](CCCCN)C(=O)N[C@@H](Cc1c[nH]c2ccccc12)C(=O)N[C@@H](CC(N)=O)C(=O)N[C@@H](Cc1c[nH]c2ccccc12)C(=O)N[C@@H](Cc1ccccc1)C(N)=O)[C@@H](C)O` (Ac-YTSLIEELIKKTEEQQKKNEEELKKLEEWAKKWNWF-NH2), the Tm worked out at 62.4 °C in test [1], 57.8 °C in test [2] and 75.9 °C in test [6]. The EC50 in test [3] stood at 0.4 nM. Moreover, the Activity was 8.1% in test [4], 6.1% in test [5] and 10% in test [7].

Consider `CC[C@H](C)[C@H](NC(=O)[C@H](CC(C)C)NC(=O)[C@H](CCC(=O)O)NC(=O)[C@H](CCC(=O)O)NC(=O)[C@@H](NC(=O)[C@H](CC(C)C)NC(=O)[C@H](CO)NC(=O)[C@@H](NC(=O)[C@H](Cc1ccc(O)cc1)NC(C)=O)[C@@H](C)O)[C@@H](C)CC)C(=O)N[C@@H](CCCCN)C(=O)N[C@@H](CCCCN)C(=O)N[C@@H](CO)C(=O)N[C@@H](CCC(=O)O)C(=O)N[C@@H](CCC(=O)O)C(=O)N[C@@H](CCC(N)=O)C(=O)N[C@@H](CCC(N)=O)C(=O)N[C@@H](CCCCN)C(=O)N[C@@H](CCCCN)C(=O)N[C@@H](CC(N)=O)C(=O)N[C@@H](CCC(=O)O)C(=O)N[C@@H](CCC(=O)O)C(=O)N[C@@H](CCC(=O)O)C(=O)N[C@@H](CC(C)C)C(=O)N[C@@H](CCCCN)C(=O)N[C@@H](CCCCN)C(=O)N[C@@H](CC(C)C)C(=O)N[C@@H](CCC(=O)O)C(=O)N[C@@H](CCC(=O)O)C(=O)N[C@@H](Cc1c[nH]c2ccccc12)C(=O)N[C@@H](C)C(=O)N[C@@H](CCCCN)C(=O)N[C@@H](CCCCN)C(=O)N[C@@H](Cc1c[nH]c2ccccc12)C(=O)N[C@@H](CC(N)=O)C(=O)N[C@@H](Cc1c[nH]c2ccccc12)C(=O)N[C@@H](Cc1ccccc1)C(N)=O` (Ac-YTSLIEELIKKSEEQQKKNEEELKKLEEWAKKWNWF-NH2), for which the Tm in test [1] stood at 65.3 °C; in [2], 60 °C; in test [6], 78.8 °C. The EC50 in test [3] is 1.1 nM. Moreover, the Activity in [4] was 9.3%; in [5], 7.4%; in [7], 8.2%.

As to `CC[C@H](C)[C@H](NC(=O)[C@H](CC(C)C)NC(=O)[C@H](CCC(=O)O)NC(=O)[C@H](CCC(=O)O)NC(=O)[C@@H](NC(=O)[C@H](CC(C)C)NC(=O)[C@H](CO)NC(=O)[C@@H](NC(=O)[C@H](Cc1ccc(O)cc1)NC(C)=O)[C@@H](C)O)[C@@H](C)CC)C(=O)N[C@@H](CCCCN)C(=O)N[C@@H](CCCCN)C(=O)N[C@@H](Cc1c[nH]c2ccccc12)C(=O)N[C@@H](CCC(=O)O)C(=O)N[C@@H](CCC(=O)O)C(=O)N[C@@H](CCC(N)=O)C(=O)N[C@@H](CCC(N)=O)C(=O)N[C@@H](CCCCN)C(=O)N[C@@H](CCCCN)C(=O)N[C@@H](CC(N)=O)C(=O)N[C@@H](CCC(=O)O)C(=O)N[C@@H](CCC(=O)O)C(=O)N[C@@H](CCC(=O)O)C(=O)N[C@@H](CC(C)C)C(=O)N[C@@H](CCCCN)C(=O)N[C@@H](CCCCN)C(=O)N[C@@H](CC(C)C)C(=O)N[C@@H](CCC(=O)O)C(=O)N[C@@H](CCC(=O)O)C(=O)N[C@@H](Cc1c[nH]c2ccccc12)C(=O)N[C@@H](C)C(=O)N[C@@H](CCCCN)C(=O)N[C@@H](CCCCN)C(=O)N[C@@H](Cc1c[nH]c2ccccc12)C(=O)N[C@@H](CC(N)=O)C(=O)N[C@@H](Cc1c[nH]c2ccccc12)C(=O)N[C@@H](Cc1ccccc1)C(N)=O` (Ac-YTSLIEELIKKWEEQQKKNEEELKKLEEWAKKWNWF-NH2), the Tm in [1] was 61.4 °C; in [2], 53.2 °C; in test [6] it was 62 °C. The EC50 in test [3] was 20 nM. Besides, the Activity in [4] was 7.7%; in test [5], 7.6%; in [7] it was 5.2%.

`CC[C@H](C)[C@H](NC(=O)[C@H](CC(C)C)NC(=O)[C@H](CCC(=O)O)NC(=O)[C@H](CCC(=O)O)NC(=O)[C@@H](NC(=O)[C@H](CCCCN)NC(=O)[C@H](CCCCN)NC(=O)[C@@H](NC(=O)[C@H](Cc1ccc(O)cc1)NC(=O)[C@H](CCC(=O)O)NC(=O)[C@H](CCC(=O)O)NC(=O)[C@@H](NC(=O)[C@H](CCCCN)NC(=O)[C@H](CCCCN)NC(=O)[C@H](CC(=O)O)NC(=O)[C@H](Cc1c[nH]c2ccccc12)NC(=O)[C@H](CCC(=O)O)NC(=O)[C@H](CCC(=O)O)NC(=O)[C@H](Cc1c[nH]c2ccccc12)NC(C)=O)[C@@H](C)CC)[C@@H](C)O)[C@@H](C)CC)C(=O)N[C@@H](CCCCN)C(=O)N[C@@H](CCCCN)C(=O)N[C@@H](CCC(=O)O)C(=O)N[C@@H](CCC(=O)O)C(=O)N[C@@H](CCC(=O)O)C(=O)N[C@@H](CCC(N)=O)C(=O)N[C@@H](CCC(N)=O)C(=O)N[C@@H](CCCCN)C(=O)N[C@@H](CCCCN)C(=O)N[C@@H](CC(N)=O)C(=O)N[C@@H](CCC(=O)O)C(=O)N[C@@H](CCC(=O)O)C(=O)N[C@@H](CCC(=O)O)C(=O)N[C@@H](CC(C)C)C(=O)N[C@@H](CCCCN)C(=O)N[C@@H](CCCCN)C(N)=O` (Ac-WEEWDKKIEEYTKKIEELIKKEEEQQKKNEEELKK-NH2): the Activity in test [8] came out at 1.3%; in test [9], 1.8%; in test [11], 1%; in [12], 5.1%. For the same compound, the Tm in [10] was 66.2 °C. Further, the EC50 in test [3] was found to be 15 nM.

On to `CC[C@H](C)[C@H](NC(=O)[C@H](CC(C)C)NC(=O)[C@H](CCC(=O)O)NC(=O)[C@H](CCC(=O)O)NC(=O)[C@@H](NC(=O)[C@H](CCCCN)NC(=O)[C@H](CCCCN)NC(=O)[C@@H](NC(=O)[C@H](Cc1ccc(O)cc1)NC(=O)[C@H](CCC(=O)O)NC(=O)[C@H](CCC(=O)O)NC(=O)[C@@H](NC(=O)[C@H](CCCCN)NC(=O)[C@H](CCCCN)NC(=O)[C@H](CC(=O)O)NC(=O)[C@H](Cc1c[nH]c2ccccc12)NC(=O)[C@H](CCC(=O)O)NC(=O)[C@H](CCC(=O)O)NC(=O)[C@H](Cc1c[nH]c2ccccc12)NC(C)=O)[C@@H](C)CC)[C@@H](C)O)[C@@H](C)CC)C(=O)N[C@@H](CCCCN)C(=O)N[C@@H](CCCCN)C(=O)N[C@@H](CCSC)C(=O)N[C@@H](CCC(=O)O)C(=O)N[C@@H](CCC(=O)O)C(=O)N[C@@H](CCC(N)=O)C(=O)N[C@@H](CCC(N)=O)C(=O)N[C@@H](CCCCN)C(=O)N[C@@H](CCCCN)C(=O)N[C@@H](CC(N)=O)C(=O)N[C@@H](CCC(=O)O)C(=O)N[C@@H](CCC(=O)O)C(=O)N[C@@H](CCC(=O)O)C(=O)N[C@@H](CC(C)C)C(=O)N[C@@H](CCCCN)C(=O)N[C@@H](CCCCN)C(N)=O` (Ac-WEEWDKKIEEYTKKIEELIKKMEEQQKKNEEELKK-NH2), for which the Activity stood at 8.9% in test [8], 12.5% in [9], 13.3% in test [11] and 6.8% in test [12]. Besides, in test [10], the Tm stood at 84.1 °C. Moreover, in test [3], the EC50 is 0.68 nM.

In general, Tm refers to the temperature at which the thermal transition is half complete. In general, EC50 refers to the concentration needed to bring the measured effect to its halfway point.
